Molecules are shown by their SMILES. A value given as a limit tells only on which side of the number the result lay.

This note sets out measurements from ChEMBL document CHEMBL1134133, “Neutral inhibitors of the serine protease factor Xa” (Bioorg Med Chem Lett, 2001).

For test [1], the target named is Coagulation factor X (Homo sapiens) (UniProt P00742). Briefly: In vitro inhibition of human coagulation factor X.
For test [2], the target named is Tissue-type plasminogen activator (Homo sapiens) (UniProt P00750). Briefly: Inhibitory activity against tissue plasminogen activator (tissue plasminogen activator) at pH 8.2.
Test [3] deals with Vitamin K-dependent protein C (Homo sapiens) (UniProt P04070). The test is described as follows: Inhibitory activity against Activated protein C at pH 8.2.
The target in test [4] is Urokinase-type plasminogen activator (Homo sapiens) (UniProt P00749). The test is described as follows: Inhibitory activity against urokinase-type plasminogen activator (microPa) at pH 8.2.
Test [5] deals with Serine protease 1 (Homo sapiens) (UniProt P07477). The test is described as follows: Inhibitory activity against trypsin at pH 8.2.
Test [6] addresses Plasminogen (Homo sapiens) (UniProt P00747). Briefly: Inhibitory activity against plasmin at pH 8.2.
Test [7] deals with Coagulation factor X (Homo sapiens) (UniProt P00742). Briefly: Inhibitory activity against serine protease Coagulation factor X at pH 7.4.
For test [8], the target named is Prothrombin (Homo sapiens) (UniProt P00734). The test is described as follows: Inhibitory activity against thrombin at pH 8.2.
The target in test [9] is T1, Coagulation factor VII (Homo sapiens) (UniProt P08709).
T1 sequence (whole entry): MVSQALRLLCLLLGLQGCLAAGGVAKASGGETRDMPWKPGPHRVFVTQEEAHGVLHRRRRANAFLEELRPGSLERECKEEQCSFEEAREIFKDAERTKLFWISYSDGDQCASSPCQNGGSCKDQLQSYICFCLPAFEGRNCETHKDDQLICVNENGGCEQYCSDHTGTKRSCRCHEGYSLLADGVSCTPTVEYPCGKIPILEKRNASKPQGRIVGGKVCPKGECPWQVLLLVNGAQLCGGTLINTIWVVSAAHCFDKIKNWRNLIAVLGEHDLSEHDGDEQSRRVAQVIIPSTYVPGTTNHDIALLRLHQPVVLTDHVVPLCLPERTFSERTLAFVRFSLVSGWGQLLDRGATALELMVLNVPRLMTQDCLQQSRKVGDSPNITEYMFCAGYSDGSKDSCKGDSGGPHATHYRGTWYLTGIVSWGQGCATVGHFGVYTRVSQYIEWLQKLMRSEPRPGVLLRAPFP
Briefly: Inhibitory activity against Coagulation factor VII at pH 8.2.

Test [10] concerns the target Coagulation factor X (Homo sapiens) (UniProt P00742). The test is described as follows: Inhibitory activity against serine protease Coagulation factor X at pH 8.2.

Chain of Coagulation factor X (Homo sapiens) (P00742 41-179 limits assumed): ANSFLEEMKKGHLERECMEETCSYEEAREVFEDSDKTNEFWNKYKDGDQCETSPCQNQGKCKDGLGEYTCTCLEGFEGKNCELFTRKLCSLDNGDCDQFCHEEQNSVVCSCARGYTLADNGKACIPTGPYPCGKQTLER
Chain of Coagulation factor X (Homo sapiens) (P00742 235-488 limits assumed): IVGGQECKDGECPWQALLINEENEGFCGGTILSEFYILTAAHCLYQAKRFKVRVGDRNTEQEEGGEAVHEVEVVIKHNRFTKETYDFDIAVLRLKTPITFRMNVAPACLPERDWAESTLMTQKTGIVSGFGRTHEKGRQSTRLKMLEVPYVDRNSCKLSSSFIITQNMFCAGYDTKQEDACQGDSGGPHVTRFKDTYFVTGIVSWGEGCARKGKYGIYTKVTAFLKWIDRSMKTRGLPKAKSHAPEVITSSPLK
Chain of Vitamin K-dependent protein C (Homo sapiens) (P04070 43-197 limits assumed): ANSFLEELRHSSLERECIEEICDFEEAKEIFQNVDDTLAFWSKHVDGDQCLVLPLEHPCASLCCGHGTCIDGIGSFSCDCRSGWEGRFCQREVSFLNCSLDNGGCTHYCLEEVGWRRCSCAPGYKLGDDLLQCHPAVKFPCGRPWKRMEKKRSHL
Chain of Vitamin K-dependent protein C (Homo sapiens) (P04070 212-461 limits assumed): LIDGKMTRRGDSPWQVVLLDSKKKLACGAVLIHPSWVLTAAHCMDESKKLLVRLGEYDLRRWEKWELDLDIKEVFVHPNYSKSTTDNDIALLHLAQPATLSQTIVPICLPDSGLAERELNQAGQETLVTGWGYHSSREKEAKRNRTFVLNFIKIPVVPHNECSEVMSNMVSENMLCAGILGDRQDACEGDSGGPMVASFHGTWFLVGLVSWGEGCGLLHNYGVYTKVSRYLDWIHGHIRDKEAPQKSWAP
Chain of Plasminogen (Homo sapiens) (P00747 whole entry, looked up): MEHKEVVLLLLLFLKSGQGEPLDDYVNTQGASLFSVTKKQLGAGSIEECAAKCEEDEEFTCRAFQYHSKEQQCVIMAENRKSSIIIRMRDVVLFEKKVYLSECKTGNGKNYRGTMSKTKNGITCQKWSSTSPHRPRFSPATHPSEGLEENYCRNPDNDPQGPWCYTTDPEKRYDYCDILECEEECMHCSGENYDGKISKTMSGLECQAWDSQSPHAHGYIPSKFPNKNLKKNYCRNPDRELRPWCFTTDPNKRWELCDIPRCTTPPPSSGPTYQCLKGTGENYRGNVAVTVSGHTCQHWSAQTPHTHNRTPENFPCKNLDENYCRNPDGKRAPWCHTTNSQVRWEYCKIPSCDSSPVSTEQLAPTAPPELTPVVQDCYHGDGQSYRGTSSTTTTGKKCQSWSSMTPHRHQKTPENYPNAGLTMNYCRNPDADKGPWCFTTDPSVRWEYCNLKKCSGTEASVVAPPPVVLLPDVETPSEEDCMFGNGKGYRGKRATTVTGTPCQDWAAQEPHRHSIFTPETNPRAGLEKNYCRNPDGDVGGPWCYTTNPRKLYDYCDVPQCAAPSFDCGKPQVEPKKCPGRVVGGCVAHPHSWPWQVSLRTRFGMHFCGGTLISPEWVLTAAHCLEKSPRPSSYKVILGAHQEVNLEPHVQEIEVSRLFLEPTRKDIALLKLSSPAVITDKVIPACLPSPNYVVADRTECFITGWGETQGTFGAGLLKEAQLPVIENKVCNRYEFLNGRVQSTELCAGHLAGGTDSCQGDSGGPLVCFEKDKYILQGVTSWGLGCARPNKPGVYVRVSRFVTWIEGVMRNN
Chain of Serine protease 1 (Homo sapiens) (P07477 whole entry): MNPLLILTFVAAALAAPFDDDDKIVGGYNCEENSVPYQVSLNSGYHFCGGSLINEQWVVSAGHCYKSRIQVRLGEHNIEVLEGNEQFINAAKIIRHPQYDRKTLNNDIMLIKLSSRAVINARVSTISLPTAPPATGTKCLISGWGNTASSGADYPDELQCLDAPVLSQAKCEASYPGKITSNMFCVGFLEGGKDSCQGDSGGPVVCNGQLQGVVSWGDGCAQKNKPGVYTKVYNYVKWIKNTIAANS
Chain of Tissue-type plasminogen activator (Homo sapiens) (P00750 36-562 limits assumed): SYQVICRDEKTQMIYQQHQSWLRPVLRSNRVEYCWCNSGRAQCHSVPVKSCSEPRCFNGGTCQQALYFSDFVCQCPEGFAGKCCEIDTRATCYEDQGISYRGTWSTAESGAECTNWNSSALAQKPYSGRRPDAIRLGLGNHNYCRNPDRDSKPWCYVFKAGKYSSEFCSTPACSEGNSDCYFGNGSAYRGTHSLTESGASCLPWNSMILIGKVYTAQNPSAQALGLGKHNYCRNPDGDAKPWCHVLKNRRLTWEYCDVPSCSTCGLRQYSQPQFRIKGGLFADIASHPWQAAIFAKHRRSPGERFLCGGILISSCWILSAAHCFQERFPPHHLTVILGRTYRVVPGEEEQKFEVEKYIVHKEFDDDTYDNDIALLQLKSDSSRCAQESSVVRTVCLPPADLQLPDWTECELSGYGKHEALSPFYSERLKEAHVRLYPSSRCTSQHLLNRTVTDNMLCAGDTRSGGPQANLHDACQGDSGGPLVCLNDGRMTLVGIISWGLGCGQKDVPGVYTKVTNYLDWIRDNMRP

Regarding `O=C(O)c1ccc(NC(=O)c2ccccc2NC(=O)c2sc3ccccc3c2Cl)cc1`, the Ki' in [1] is more than 150 µM. Still for that read-out and setting: the same measure for `Cc1ccc(NC(=O)c2sc3ccccc3c2Cl)c(C(=O)Nc2ccncc2)c1`: 22.1 µM; for `COc1ccc(NC(=O)c2cc(C)ccc2NC(=O)c2sc3ccccc3c2Cl)cc1`: 2.1 µM. Same read-out and setting: the same measure for `Cc1ccc(NC(=O)c2sc3ccccc3c2Cl)c(C(=O)Nc2ccccc2Cl)c1`: more than 1200 µM. The same measure, in the same setting: the same measure for `Cc1ccc(NC(=O)c2cc3ccc(O)cc3s2)c(C(=O)Nc2ccc(F)cc2)c1`: 10 µM.

Consider `O=C(Nc1ccccn1)c1ccccc1NC(=O)c1sc2ccccc2c1Cl`, for which the Ki' in test [1] came to 7.8 µM. In the case of `O=C(Nc1ccc(F)cc1)c1ccccc1NC(=O)c1sc2ccccc2c1Cl`, the Ki' in test [1] amounted to 3.1 µM. In the case of `Cc1ccc(NC(=O)c2sc3ccccc3c2Cl)c(C(=O)Nc2ccc(F)cc2)c1`, the Ki' in [2] is more than 150 µM; in test [3] it was more than 150 µM; in test [4], more than 150 µM; in test [5], more than 150 µM; in test [6] it was more than 150 µM; in test [1], 0.57 µM. Besides, the Ki' in test [7] is 0.042 µM; in test [8] it was 125 µM; in test [9], more than 900 µM; in test [10] it was 2.1 µM. Turning to `Cc1ccc(NC(=O)c2sc3ccccc3c2Cl)c(C(=O)N2CCNCC2)c1`, the Ki' in test [1] was more than 1200 µM. Take `O=C(Nc1ccccc1C(=O)N1CCOCC1)c1sc2ccccc2c1Cl`: the Ki' in test [1] is more than 150 µM. In [1], `Cc1ccc(NC(=O)c2sc3ccccc3c2Cl)c(C(=O)Nc2ccc3c(c2)OCO3)c1` returned a Ki' of 17.7 µM. Same read-out and setting: the figure for `Cc1ccc(NC(=O)c2sc3ccccc3c2Cl)c(C(=O)Nc2ccc(O)cc2)c1` is 97 µM; for `Cc1ccc(NC(=O)c2sc3ccccc3c2Cl)c(C(=O)Nc2ccc(N(C)C)cc2)c1` it is more than 1200 µM; for `Cc1ccc(NC(=O)c2cc3cc(O)ccc3s2)c(C(=O)Nc2ccc(F)cc2)c1` it is 3.5 µM.

Compound `O=C(O)c1cccc(NC(=O)c2ccccc2NC(=O)c2sc3ccccc3c2Cl)c1` returned a Ki' in test [1] of more than 150 µM.

In turn, `Cc1ccc(NC(=O)c2sc3ccccc3c2Cl)c(C(=O)Nc2ccc(Cl)cc2)c1` came in with a Ki' in test [1] of 0.21 µM. The same measure, in the same setting: the figure for `Cc1ccc(NC(=O)c2sc3ccccc3c2Cl)c(C(=O)Nc2ccc(N3CCOCC3)cc2)c1` is 436 µM.
